How the values were obtained:
[1] = target: T1, recombinant human transglutaminase 2 (Homo sapiens, UniProt P21980); test: Transglutaminase assay: incorporation of dansylcadaverine into dimethylcasein (DCC-assay); assay type: biochemical; settings: recombinant human TG2 10 nM, dansylcadaverine/dimethylcasein; read-out: IC50 TG2
T1 sequence (P21980 1-687): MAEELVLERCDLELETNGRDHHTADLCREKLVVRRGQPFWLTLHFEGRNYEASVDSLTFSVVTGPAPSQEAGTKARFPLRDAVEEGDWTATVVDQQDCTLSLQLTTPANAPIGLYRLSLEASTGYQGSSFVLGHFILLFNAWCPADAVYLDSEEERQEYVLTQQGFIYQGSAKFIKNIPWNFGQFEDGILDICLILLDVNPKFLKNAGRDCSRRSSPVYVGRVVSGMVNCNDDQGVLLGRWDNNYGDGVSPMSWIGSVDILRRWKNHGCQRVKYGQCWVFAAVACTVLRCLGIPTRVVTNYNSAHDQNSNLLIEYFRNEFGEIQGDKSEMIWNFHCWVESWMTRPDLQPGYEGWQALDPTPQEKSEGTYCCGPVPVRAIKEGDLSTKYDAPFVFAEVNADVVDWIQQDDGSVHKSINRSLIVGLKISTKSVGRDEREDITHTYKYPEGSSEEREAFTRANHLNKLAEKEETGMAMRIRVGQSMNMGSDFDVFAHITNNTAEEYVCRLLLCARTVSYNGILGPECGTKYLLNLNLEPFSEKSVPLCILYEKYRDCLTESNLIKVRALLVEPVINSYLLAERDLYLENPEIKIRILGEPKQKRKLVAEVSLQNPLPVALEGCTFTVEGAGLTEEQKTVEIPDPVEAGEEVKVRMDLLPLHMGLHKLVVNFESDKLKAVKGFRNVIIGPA
Summary of the method: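 Recombinant human TG2 (10 nM final) incorporates dansylcadaverine (16.7 μM) into N,N-dimethylcasein (4 μM) in Tris-HCl buffer, pH 8.0, with 10 mM CaCl2 and 10 mM glutathione. Fluorescence (λex 330, λem 500 nm) followed 30 min. The slope between 20–30 min gives activity versus DMSO control, and IC50 comes from the concentration–activity plot.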

[2] = Caco-2 permeability assay (CacoReady kit); assay type: in vitro ADME; settings: human
Summary of the method: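 Intestinal permeability modelled with kit-supplied Caco-2 barriers, run as the maker specifies; each compound reported as Papp.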

[3] = Log D by shake flask method (octanol / PBS pH 7.4, HPLC); assay type: physicochemical; settings: octanol / PBS pH 7.4, shake flask; read-out: logD
Summary of the method: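 Log D is derived by HPLC measurement of how the compound distributes between octanol and pH 7.4 phosphate-buffered saline in a shake flask.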

SMILES	IC50 [1] [nM]	Papp [2] [×10⁻⁶ cm/s]	logD [3]
CCNC(=O)C(=O)CC[C@H](NC(=O)c1cnc(Cl)n1C)C(=O)Nc1cccn(CC(=O)NC23CC4CC(C)(CC(C)(C4)C2)C3)c1=O [Compound I-26, (S)-2-(2-chloro-1-methyl-1H-imidazole-5-carboxamido)-N6-ethyl-N1-(1-(2-(3,5-dimethyladamantane-1-amino)-2-oxoethyl)-2-oxo-1,2-dihydropyridin-3-yl)-5-oxohexanediamide]	150 to 600	< 1	1 to 3
CCNC(=O)C(=O)CC[C@H](NC(=O)c1cnc2ccc(OC(F)(F)F)cc2c1O)C(=O)Nc1cccn(CC(=O)N[C@@H]2C[C@@H]3CC[C@H]2C3)c1=O [Compound I-99, (S)-N1-(1-(2-((1S,2R,4R)-bicyclo[2.2.1]heptan-2-ylamino)-2-oxoethyl)-2-oxo-1,2-dihydropyridin-3-yl)-N6-ethyl-2-(4-hydroxy-6-(trifluoromethoxy)quinoline-3-carboxamido)-5-oxohexanediamide]	600 to 3500	< 1	3 to 5
CCNC(=O)C(=O)CC[C@H](NC(=O)c1ccncc1)C(=O)Nc1cccn(CC(=O)NC23CCC(CC2)C3)c1=O [Compound I-71, (S)-N1-(1-(2-((1s,4R)-bicyclo[2.2.1]heptan-1-ylamino)-2-oxoethyl)-2-oxo-1,2-dihydropyridin-3-yl)-N6-ethyl-2-(isonicotinamido)-5-oxohexanediamide]	150 to 600	< 1	< 1
CCNC(=O)C(=O)CC[C@H](NC(=O)c1cc2c(Br)cccc2o1)C(=O)Nc1cccn(CC(=O)NC2C3CC4CC(C3)CC2C4)c1=O (stereo partly drawn) [Compound I-33, (S)-2-(4-bromobenzofuran-2-carboxamido)-N6-ethyl-N1-(1-(2-(2-adamantylamino)-2-oxoethyl)-2-oxo-1,2-dihydropyridin-3-yl)-5-oxohexanediamide]	< 150	1 to 10	3 to 5
CCNC(=O)C(=O)CC[C@H](NC(=O)[C@@H]1CCCN1C(C)=O)C(=O)Nc1cccn(CC(=O)NC2C3CC4CC(C3)CC2C4)c1=O (stereo partly drawn) [Compound I-55, (S)-2-((S)-1-acetylpyrrolidine-2-carboxamido)-N6-ethyl-N1-(1-(2-(2-adamantylamino)-2-oxoethyl)-2-oxo-1,2-dihydropyridin-3-yl)-5-oxohexanediamide]	150 to 600	< 1	1 to 3
CCNC(=O)C(=O)CC[C@H](NC(=O)[C@H]1CCNC1)C(=O)Nc1cccn(CC(=O)NC2C3CC4CC2CC(F)(C4)C3)c1=O (stereo partly drawn) [Compound I-59, (S)-N1-ethyl-N6-(1-(2-(5-fluoroadamantane-2-amino)-2-oxoethyl)-2-oxo-1,2-dihydropyridin-3-yl)-2-oxo-5-((S)-pyrrolidine-3-carboxamido)hexanediamide]	150 to 600	< 1	< 1
CCNC(=O)C(=O)CC[C@H](NC(=O)c1cncc(C(=O)O)c1)C(=O)Nc1cccn(CC(=O)NC(C)C23CC4CC(CC(C4)C2)C3)c1=O (stereo partly drawn) [Compound I-66]	150 to 600	< 1	3 to 5
CCNC(=O)C(=O)CC[C@H](NC(=O)c1cncn1C)C(=O)Nc1cccn(CC(=O)NC[C@@H]2CC[C@@H]3C[C@H]2C3(C)C)c1=O [Compound I-14, (S)-N1-(1-(2-(((1R,2R,5R)-6,6-dimethylbicyclo[3.1.1]heptan-2-yl)methylamino)-2-oxoethyl)-2-oxo-1,2-dihydropyridin-3-yl)-N6-ethyl-2-(1-methyl-1H-imidazole-5-carboxamido)-5-oxohexanediamide]	150 to 600	< 1	1 to 3
CCNC(=O)C(=O)CC[C@H](NC(=O)c1cccnn1)C(=O)Nc1cccn(CC(=O)N[C@@H]2C[C@@H]3C=C[C@H]2C3)c1=O [Compound I-73, (S)-N1-(1-(2-((1R,2R,4R)-bicyclo[2.2.1]hept-5-en-2-ylamino)-2-oxoethyl)-2-oxo-1,2-dihydropyridin-3-yl)-N6-ethyl-5-oxo-2-(pyridazine-3-carboxamido)hexanediamide]	150 to 600	< 1	< 1
CCNC(=O)C(=O)CC[C@H](NC(=O)c1cc(C)oc1C)C(=O)Nc1cccn(CC(=O)NC2C3CC4CC(C3)CC2C4)c1=O (stereo partly drawn) [Compound I-49, (S)-2-(2,5-dimethylfuran-3-carboxamido)-N6-ethyl-N1-(1-(2-(2-adamantylamino)-2-oxoethyl)-2-oxo-1,2-dihydropyridin-3-yl)-5-oxohexanediamide]	< 150	1 to 10	1 to 3
CCNC(=O)C(=O)CC[C@H](NC(=O)c1cc(C#N)cn1C)C(=O)Nc1cccn(CCCC23CC4CC(CC(C4)C2)C3)c1=O [Compound I-86]	600 to 3500	1 to 10	3 to 5
CCNC(=O)C(=O)CC[C@H](NC(=O)c1oc2ccccc2c1C)C(=O)Nc1cccn(CC(=O)NC23CC(C2)C3)c1=O [Compound I-88, (S)-N1-(1-(2-(bicyclo[1.1.1]pentan-1-ylamino)-2-oxoethyl)-2-oxo-1,2-dihydropyridin-3-yl)-N6-ethyl-2-(3-methylbenzofuran-2-carboxamido)-5-oxohexanediamide]	< 150	1 to 10	< 1
CCNC(=O)C(=O)CC[C@H](NC(=O)c1ncn(C)n1)C(=O)Nc1cccn(CC(=O)N[C@@H]2C[C@@H]3C[C@H]([C@H]2C)C3(C)C)c1=O [Compound I-76, (S)-N1-ethyl-5-(1-methyl-1H-1,2,4-triazole-3-carboxamido)-2-oxo-N6-(2-oxo-1-(2-oxo-2-((1R,2R,3R,5S)-2,6,6-trimethylbicyclo[3.1.1]heptan-3-ylamino)ethyl)-1,2-dihydropyridin-3-yl)hexanediamide]	150 to 600	< 1	1 to 3
CCNC(=O)C(=O)CC[C@H](NC(=O)[C@@H]1CCCNC1)C(=O)Nc1cccn(CC(=O)NC2C3CC4CC2CC(Br)(C4)C3)c1=O (stereo partly drawn) [Compound I-61, (S)-N1-ethyl-N6-(1-(2-(5-bromoadamantane-2-amino)-2-oxoethyl)-2-oxo-1,2-dihydropyridin-3-yl)-2-oxo-5-((R)-piperidine-3-carboxamido)hexanediamide]	150 to 600	< 1	1 to 3
CCNC(=O)C(=O)CC[C@H](NC(=O)c1cc(C(=O)OC)cc([N+](=O)[O-])c1)C(=O)Nc1cccn(CC(=O)NC2(C(=O)OC)C3CC4CC(C3)CC2C4)c1=O (stereo partly drawn) [Compound I-64, (S)-methyl 3-(6-(ethylamino)-1-(1-(2-(methyl 2-aminoadamantane-2-carboxylate)-2-oxoethyl)-2-oxo-1,2-dihydropyridin-3-ylamino)-1,5,6-trioxohexan-2-ylcarbamoyl)-5-nitrobenzoate]	< 150	1 to 10	1 to 3
CCNC(=O)C(=O)CC[C@H](NC(=O)c1noc(C)n1)C(=O)Nc1cccn(CC(=O)NC23CC(C2)C3)c1=O [Compound I-116, (S)-N1-(1-(2-(bicyclo[1.1.1]pentan-1-ylamino)-2-oxoethyl)-2-oxo-1,2-dihydropyridin-3-yl)-N6-ethyl-2-(5-methyl-1,2,4-oxadiazole-3-carboxamido)-5-oxohexanediamide]	600 to 3500	< 1	< 1

Source: patent US20240270715A1, “INHIBITORS OF TRANSGLUTAMINASES” (ZEDIRA GMBH, priority 2021, published 2024)
